Experimental data reported in US20250228865A1, “COMPOUNDS FOR ENHANCING READ THROUGH OF GENES CONTAINING PREMATURE TERMINATION CODONS AND METHODS FOR MAKING AND USING THE SAME” (Sanofi US Services Inc., priority 2022, published 2025).

Experiments:
[1] = tested on: recombinant human CFTR carrying the premature stop codon (PTC) mutation G542X; experiment: CFTR-PTC mutant translation readthrough, Nanoluc tagged CFTR luminescence (G542X cell line); type: cell-based; details: in combination with G418, G542X cell line; for CFTR G542X ACTIVITY Fold 10 μM G-418: fold over 10 μM G-418; for EC50: 16HBE cells
Summary of the method: (§1)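 Readthrough is the 48 h compound-induced luminescence increase scaled to that of maximal G418 (125-250 μM). Compounds run from 50 μM final in 2-fold steps, ±10 μM G418, on 16HBE lines carrying Nanoluc-tagged CFTR G542X (extracellular loop 4 tag) or R1162X (C-terminal tag), with 3 μM VX-809 present.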

[2] = tested on: recombinant human CFTR carrying the premature stop codon (PTC) mutation R1162X; experiment: CFTR-PTC mutant translation readthrough, Nanoluc tagged CFTR luminescence (R1162X cell line); type: cell-based; details: for CFTR R1162X ACTIVITY Fold 10 μM G-418: fold over 10 μM G-418, in combination with G418; for EC50: in combination with G418, 16HBE cells, read-out: CFTR R1162X ACTIVITY EC50
Summary of the method: as §1

## OCc1ccn(-c2ccc(OCc3c(Cl)cccc3Cl)cc2)n1 [[1-[4-[(2,6-dichlorophenyl)methoxy]phenyl]pyrazol-3-yl]methanol]
[1]
  CFTR G542X ACTIVITY Fold 10 μM G-418: A′ (A′ = ≥10X)
  EC50: < 1 µM
[2]
  CFTR R1162X ACTIVITY Fold 10 μM G-418: A′ (A′ = ≥10X)
  EC50: 1 to 10 µM

## Cc1cccc(C(F)(F)F)c1COc1cnc(N2CCO[C@H](CO)C2)nc1
[1]
  CFTR G542X ACTIVITY Fold 10 μM G-418: A′ (A′ = ≥10X)
  EC50: < 1 µM
[2]
  CFTR R1162X ACTIVITY Fold 10 μM G-418: A′ (A′ = ≥10X)
  EC50: < 1 µM

## O=C1N[C@@H](CO)CN1c1ccc(OCc2c(Cl)cccc2Cl)cn1
[1]
  CFTR G542X ACTIVITY Fold 10 μM G-418: A′ (A′ = ≥10X)
  EC50: 1 to 10 µM
[2]
  CFTR R1162X ACTIVITY Fold 10 μM G-418: A′ (A′ = ≥10X)
  EC50: 1 to 10 µM

## O=C1Cc2cc(NCc3c(Cl)cccc3Cl)ccc2C(=O)N1 [Compound 303, 6-[(2,6-dichlorophenyl)methylamino]-4H-isoquinoline-1,3-dione]
[1]
  EC50: > 10 µM
[2]
  EC50: > 10 µM

## O=C1N[C@H](CO)CN1c1ccc(OCc2c(Cl)cccc2Cl)cn1
[1]
  CFTR G542X ACTIVITY Fold 10 μM G-418: A′ (A′ = ≥10X)
  EC50: < 1 µM
[2]
  CFTR R1162X ACTIVITY Fold 10 μM G-418: A′ (A′ = ≥10X)
  EC50: < 1 µM

## OCc1cn(-c2ccc(CCc3c(Cl)cccc3Cl)cc2)cn1 [[1-[4-[2-(2,6-dichlorophenyl)ethyl]phenyl]imidazol-4-yl]methanol]
[1]
  CFTR G542X ACTIVITY Fold 10 μM G-418: B′ (B′ = ≥5X to <10X)
  EC50: 1 to 10 µM
[2]
  CFTR R1162X ACTIVITY Fold 10 μM G-418: A′ (A′ = ≥10X)
  EC50: > 10 µM

## O=C1OC(CO)CN1c1ccc(CCc2c(Cl)cccc2Cl)cn1 (stereo not shown) [3-[5-[2-(2,6-dichlorophenyl)ethyl]-2-pyridyl]-5-(hydroxymethyl)oxazolidin-2-one]
[1]
  CFTR G542X ACTIVITY Fold 10 μM G-418: B′ (B′ = ≥5X to <10X)
  EC50: 1 to 10 µM
[2]
  CFTR R1162X ACTIVITY Fold 10 μM G-418: A′ (A′ = ≥10X)
  EC50: > 10 µM

## O=C1COC(=O)N1c1ccc(OCc2c(Cl)cccc2Cl)cc1 [3-[4-[(2,6-dichlorophenyl)methoxy]phenyl]oxazolidine-2,4-dione]
[1]
  CFTR G542X ACTIVITY Fold 10 μM G-418: B′ (B′ = ≥5X to <10X)
  EC50: 1 to 10 µM
[2]
  CFTR R1162X ACTIVITY Fold 10 μM G-418: C′ (C′ = <5X)
  EC50: 1 to 10 µM

## O=C1CN(c2ncc(OCc3c(Cl)cccc3Cl)cn2)CCN1CCO
[1]
  CFTR G542X ACTIVITY Fold 10 μM G-418: A′ (A′ = ≥10X)
  EC50: 1 to 10 µM
[2]
  CFTR R1162X ACTIVITY Fold 10 μM G-418: A′ (A′ = ≥10X)
  EC50: 1 to 10 µM

## O=C(NCC1CN(c2ncc(OCc3c(Cl)cccc3Cl)cn2)CCO1)C(F)(F)F (stereo not shown)
[1]
  CFTR G542X ACTIVITY Fold 10 μM G-418: A′ (A′ = ≥10X)
  EC50: 1 to 10 µM
[2]
  CFTR R1162X ACTIVITY Fold 10 μM G-418: B′ (B′ = ≥5X to <10X)
  EC50: 1 to 10 µM

## CN1CC(=O)N(c2ccc(OCc3c(Cl)cccc3C(F)(F)F)cn2)C1=O
[1]
  CFTR G542X ACTIVITY Fold 10 μM G-418: A′ (A′ = ≥10X)
  EC50: 1 to 10 µM
[2]
  CFTR R1162X ACTIVITY Fold 10 μM G-418: C′ (C′ = <5X)
  EC50: 1 to 10 µM

## Cc1cccc(C(F)(F)F)c1COc1ccc(N2C[C@@H](CO)NC2=O)nc1
[1]
  CFTR G542X ACTIVITY Fold 10 μM G-418: A′ (A′ = ≥10X)
  EC50: < 1 µM
[2]
  CFTR R1162X ACTIVITY Fold 10 μM G-418: A′ (A′ = ≥10X)
  EC50: < 1 µM

## Cc1cccc(C(F)(F)F)c1COc1ccc(-n2cnc(CN)c2)nc1
[1]
  CFTR G542X ACTIVITY Fold 10 μM G-418: A′ (A′ = ≥10X)
  EC50: < 1 µM
[2]
  CFTR R1162X ACTIVITY Fold 10 μM G-418: A′ (A′ = ≥10X)
  EC50: 1 to 10 µM

## O=c1[nH]ncc2cc(OCc3c(Cl)cccc3Cl)ccc12 [6-[(2,6-dichlorophenyl)methoxy]-2H-phthalazin-1-one]
[1]
  CFTR G542X ACTIVITY Fold 10 μM G-418: B′ (B′ = ≥5X to <10X)
  EC50: > 10 µM
[2]
  CFTR R1162X ACTIVITY Fold 10 μM G-418: A′ (A′ = ≥10X)
  EC50: 1 to 10 µM

## O=C(O)c1ncn(-c2ncc(OCc3c(Cl)cccc3C(F)(F)F)cn2)n1
[1]
  EC50: > 10 µM
[2]
  EC50: > 10 µM

## Cc1cccc(C(F)(F)F)c1COc1ccc(-n2cc(CO)nn2)cc1 [[1-[4-[[2-methyl-6-(trifluoromethyl)phenyl]methoxy]phenyl]triazol-4-yl]methanol]
[1]
  CFTR G542X ACTIVITY Fold 10 μM G-418: A′ (A′ = ≥10X)
  EC50: 1 to 10 µM
[2]
  CFTR R1162X ACTIVITY Fold 10 μM G-418: A′ (A′ = ≥10X)
  EC50: 1 to 10 µM

## CC(=O)NC[C@@H]1CN(c2ncc(OCc3c(C)cccc3C(F)(F)F)cn2)CCO1
[1]
  CFTR G542X ACTIVITY Fold 10 μM G-418: A′ (A′ = ≥10X)
  EC50: < 1 µM
[2]
  CFTR R1162X ACTIVITY Fold 10 μM G-418: A′ (A′ = ≥10X)
  EC50: 1 to 10 µM

## Cc1cccc(C(F)(F)F)c1COc1cnc(-n2cc(CO)nn2)nc1
[1]
  CFTR G542X ACTIVITY Fold 10 μM G-418: A′ (A′ = ≥10X)
  EC50: 1 to 10 µM
[2]
  CFTR R1162X ACTIVITY Fold 10 μM G-418: A′ (A′ = ≥10X)
  EC50: 1 to 10 µM

## FC1(F)CCN(c2ncc(OCc3c(Cl)cccc3C(F)(F)F)cn2)C1
[1]
  CFTR G542X ACTIVITY Fold 10 μM G-418: A′ (A′ = ≥10X)
  EC50: 1 to 10 µM
[2]
  CFTR R1162X ACTIVITY Fold 10 μM G-418: A′ (A′ = ≥10X)
  EC50: 1 to 10 µM

## O=C1COC(CO)CN1c1ccc(OCc2c(Cl)cccc2C(F)(F)F)cn1 (stereo not shown)
[1]
  CFTR G542X ACTIVITY Fold 10 μM G-418: A′ (A′ = ≥10X)
  EC50: 1 to 10 µM
[2]
  CFTR R1162X ACTIVITY Fold 10 μM G-418: A′ (A′ = ≥10X)
  EC50: 1 to 10 µM

## OCc1cnn(-c2ncc(OCc3c(Cl)cccc3C(F)(F)F)cn2)n1
[1]
  CFTR G542X ACTIVITY Fold 10 μM G-418: A′ (A′ = ≥10X)
  EC50: < 1 µM
[2]
  EC50: 1 to 10 µM

## Cc1cccc(C(F)(F)F)c1COc1cnc(-n2cnc(CO)c2)nc1
[1]
  CFTR G542X ACTIVITY Fold 10 μM G-418: A′ (A′ = ≥10X)
  EC50: < 1 µM
[2]
  CFTR R1162X ACTIVITY Fold 10 μM G-418: A′ (A′ = ≥10X)
  EC50: < 1 µM

## Cc1cccc(C(F)(F)F)c1COc1cnc(N2CCOC(CN)C2)nc1 (stereo not shown)
[1]
  CFTR G542X ACTIVITY Fold 10 μM G-418: A′ (A′ = ≥10X)
  EC50: < 1 µM
[2]
  CFTR R1162X ACTIVITY Fold 10 μM G-418: A′ (A′ = ≥10X)
  EC50: < 1 µM

## OCc1ncn(-c2ccc(OCc3c(Cl)cccc3OC(F)F)cc2)n1
[1]
  CFTR G542X ACTIVITY Fold 10 μM G-418: A′ (A′ = ≥10X)
  EC50: 1 to 10 µM
[2]
  CFTR R1162X ACTIVITY Fold 10 μM G-418: B′ (B′ = ≥5X to <10X)
  EC50: 1 to 10 µM

## O=C1O[C@H](CO)CN1c1ncc(OCc2c(Cl)cccc2C(F)(F)F)cn1 [(5S)-3-(5-{[2-chloro-6-(trifluoromethyl)phenyl]methoxy}pyrimidin-2-yl)-5-(hydroxymethyl)-1,3-oxazolidin-2-one]
[1]
  CFTR G542X ACTIVITY Fold 10 μM G-418: C′ (C′ = <5X)
  EC50: 1 to 10 µM
[2]
  CFTR R1162X ACTIVITY Fold 10 μM G-418: C′ (C′ = <5X)
  EC50: > 10 µM

## NC(=O)N1C[C@@H]2CN(c3ncc(OCc4c(Cl)cccc4Cl)cn3)C[C@@H]2C1
[1]
  CFTR G542X ACTIVITY Fold 10 μM G-418: A′ (A′ = ≥10X)
  EC50: 1 to 10 µM
[2]
  CFTR R1162X ACTIVITY Fold 10 μM G-418: B′ (B′ = ≥5X to <10X)
  EC50: 1 to 10 µM

## Clc1cccc(Cl)c1COc1ccc(-n2ccnc2)cc1 [1-[4-[(2,6-dichlorophenyl)methoxy]phenyl]imidazole]
[1]
  CFTR G542X ACTIVITY Fold 10 μM G-418: B′ (B′ = ≥5X to <10X)
  EC50: 1 to 10 µM
[2]
  CFTR R1162X ACTIVITY Fold 10 μM G-418: A′ (A′ = ≥10X)
  EC50: > 10 µM

## Cc1cccc(C(F)(F)F)c1COc1cnc(N2CCN3CCOCC3C2)nc1 (stereo not shown)
[1]
  CFTR G542X ACTIVITY Fold 10 μM G-418: A′ (A′ = ≥10X)
  EC50: < 1 µM
[2]
  CFTR R1162X ACTIVITY Fold 10 μM G-418: A′ (A′ = ≥10X)
  EC50: < 1 µM

## OC[C@@H]1CN(c2ncc(OCc3c(Cl)cccc3C(F)(F)F)cn2)CCO1
[1]
  CFTR G542X ACTIVITY Fold 10 μM G-418: A′ (A′ = ≥10X)
  EC50: < 1 µM
[2]
  CFTR R1162X ACTIVITY Fold 10 μM G-418: A′ (A′ = ≥10X)
  EC50: < 1 µM

## NC(=O)N1CCN(c2ncc(OCc3c(Cl)cccc3C(F)(F)F)cn2)CC1
[1]
  CFTR G542X ACTIVITY Fold 10 μM G-418: A′ (A′ = ≥10X)
  EC50: < 1 µM
[2]
  CFTR R1162X ACTIVITY Fold 10 μM G-418: A′ (A′ = ≥10X)
  EC50: < 1 µM

## Cc1cccc(C(F)(F)F)c1COc1ccc(-n2cnc(CO)n2)cc1
[1]
  CFTR G542X ACTIVITY Fold 10 μM G-418: A′ (A′ = ≥10X)
  EC50: < 1 µM
[2]
  CFTR R1162X ACTIVITY Fold 10 μM G-418: A′ (A′ = ≥10X)
  EC50: < 1 µM

## OCc1nnc(-c2ccc(OCc3c(Cl)cccc3C(F)(F)F)cn2)o1
[1]
  CFTR G542X ACTIVITY Fold 10 μM G-418: C′ (C′ = <5X)
  EC50: < 1 µM
[2]
  CFTR R1162X ACTIVITY Fold 10 μM G-418: C′ (C′ = <5X)
  EC50: < 1 µM

## N#Cc1ncn(-c2ncc(OCc3c(Cl)cccc3Cl)cn2)n1 [1-[5-[(2,6-dichlorophenyl)methoxy]pyrimidin-2-yl]-1,2,4-triazole-3-carbonitrile]
[1]
  CFTR G542X ACTIVITY Fold 10 μM G-418: A′ (A′ = ≥10X)
  EC50: 1 to 10 µM
[2]
  CFTR R1162X ACTIVITY Fold 10 μM G-418: C′ (C′ = <5X)
  EC50: 1 to 10 µM
